Assay results reported in paper PMC8617303 (2021).
Blank lines part the entries; values can stand above or below the molecule they belong to.

Tests used:
[1] = system: c-myc G-quadruplex (DNA, G4) TGAGGGTGGTGAGGGTGGGGAAGG; assay: fluorescence titration, plate reader; conditions: 2 nM compound; site 1 of 2
[2] = system: tel22 G-quadruplex (DNA, G4) AGGGTTAGGGTTAGGGTTAGGG; assay: fluorescence titration, plate reader; conditions: 2 nM compound
[3] = system: c-myc mutant DNA (DNA, single strand) TGAAAATAATGAAAATAAAAAAGA; assay: ITC; conditions: K+ (50 mM KCl, 10 mM potassium phosphate); pH 7.0, 25 °C; ~10^4 fold lower affinity than c-myc G4
[4] = system: c-kit21 G-quadruplex (DNA, G4) CGGGCGGGGCGCGAGGAAAA; assay: fluorescence titration, plate reader; conditions: 2 nM compound; site 1 of 2
[5] = system: c-myc duplex (DNA, duplex) TGAGGGTGGTGAGGGTGGGGAAGG/CCTTCCCCACCCTCACCACCCTCA; assay: ITC; conditions: K+ (50 mM KCl, 10 mM potassium phosphate); pH 7.0, 25 °C; ~10^4 fold lower affinity than c-myc G4
[6] = system: c-myc mutant DNA (DNA, single strand) TGAAAATAATGAAAATAAAAAAGA; assay: gel retardation, native PAGE; conditions: K+ (50 mM KCl, 10 mM potassium phosphate); pH 7.0, 25 °C; 10 µM DNA; up to 100 µM compound
[7] = system: c-myc duplex (DNA, duplex) TGAGGGTGGTGAGGGTGGGGAAGG/CCTTCCCCACCCTCACCACCCTCA; assay: fluorescence titration, plate reader; conditions: 2 nM compound; site 1 of 2
[8] = system: bcl-2 G-quadruplex (DNA, G4) AGGGGCGGGCGCGGGAGGAAGGGGGCGGGAGCGGGGCTG; assay: fluorescence titration, plate reader; conditions: 2 nM compound; site 1 of 2
[9] = system: c-myc G-quadruplex (DNA, G4) TGAGGGTGGTGAGGGTGGGGAAGG; assay: ITC; conditions: K+ (50 mM KCl, 10 mM potassium phosphate); pH 7.0, 25 °C; site 1 of 2
[10] = system: c-myc mutant DNA (DNA, single strand) TGAAAATAATGAAAATAAAAAAGA; assay: fluorescence titration, plate reader; conditions: 2 nM compound

Kd1 [1]: 1.34 ± 0.13 µM
SMILES: Cc1ccc(NC(=S)Nc2ccccc2)cc1

Kd1 [1]: 4.61 ± 0.05 µM
SMILES: O=C(CC(=O)Nc1ccccc1)Nc1ccccc1

Kd1 ([2]; site 1 of 2): 0.19 ± 0.02 µM | binding [3]: weak | Kd1 [1]: 0.002 ± 0.001 µM | Kd1 [4]: 4.86 ± 0.02 µM | binding [5]: weak | binding [6]: no | Kd1 [7]: 1.81 ± 0.09 µM | Kd1 [8]: 0.024 ± 0.009 µM | Ka1 [9]: 3.81 × 10^7 ± 0.01 M^-1 | Kd2 [10]: 0.195 ± 0.04 µM
SMILES: O=S(=O)(NCCNS(=O)(=O)c1ccccc1)c1ccccc1

Kd2 ([2]; stronger of two sites, printed as Kd2 (Kd1 3.47)): 2.89 ± 0.03 µM | Kd1 [1]: 0.010 ± 0.003 µM | Kd1 [4]: 1.71 ± 0.005 µM | Kd1 [7]: 0.559 ± 0.03 µM | Kd1 [8]: 0.761 ± 0.01 µM | Ka1 [9]: 3.34 × 10^5 ± 0.4 M^-1 | Kd1 ([10]; site 1 of 2): 0.023 ± 0.03 µM
SMILES: CC(C)=NOC(=O)Nc1ccc(Cl)cc1

Kd1 [1]: 3.76 ± 0.03 µM
SMILES: CC(CCN=Cc1ccccc1O)N=Cc1ccccc1O (centres unmarked)

Kd1 [1]: 2.56 ± 0.02 µM
SMILES: Oc1ccccc1NCCNc1ccccc1O

Ka1 [9]: 4.56 × 10^5 ± 0.03 M^-1
SMILES: O=C(/C=C/C=C/c1ccc2c(c1)OCO2)N1CCCCC1

Kd1 [1]: 2.86 ± 0.03 µM
SMILES: CC(=NNC(=S)NN=C(C)c1ccccc1)c1ccccc1
